The text below walks through data of ChEMBL document CHEMBL1201862, “PubChem BioAssay data set” (2004).

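Test compounds were applied to cells in 96-well plates for 48 hours at 5 doses. GI50 = concentration required for 50% inhibition of growth.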 Activity calls are given as the source filed them. Rule as the data show it: active = GI50 up to about 1.1 µM and inactive = higher. Non-standard residues stand in square brackets, D forms with d. Residues, ends and D or L forms follow the SMILES beside them. *: point of attachment. Ac5c = NC1(C(=O)O)CCCC1; Boc = CC(C)(C)OC(=O)*; tBu = CC(C)(C)* A value given as a limit tells only on which side of the number the result lay.

Among the test systems are CAKI-1; MCF7; BT-549; ACHN; LOX IMVI; SF-295; HT-29; MDA-MB-231; SNB-19; Malme-3M; NCI-H226; SK-OV-3; OVCAR-5; UACC-62; M14; SK-MEL-28; HCC 2998; RPMI-8226; HCT-15; MDA-N.
What all share (assay): growth of human tumour cells (NCI), 48 h

In the case of `Cc1ccccc1OC(C)C(=O)NN1C(=O)CC(=O)N(c2ccccc2)C1=S` (stereo not drawn), the GI50 with CAKI-1 was > 100 µM (inactive); with MCF7 it was 42.3 µM (inactive); in the assay with BT-549, > 100 µM (inactive); with ACHN, 53.8 µM (inactive); in the assay with LOX IMVI, 54.3 µM (inactive); in the assay on SF-295, 46.3 µM (inactive). Moreover, the GI50 is 76 µM (inactive) with HT-29; > 100 µM (inactive) in the assay on MDA-MB-231; 24 µM (inactive) in the assay with SNB-19; > 100 µM (inactive) in the assay on Malme-3M; 41.9 µM (inactive) in the assay with NCI-H226; > 100 µM (inactive) with SK-OV-3. Besides, the GI50 with OVCAR-5 is > 100 µM (inactive); with UACC-62, 54.1 µM (inactive); in the assay on M14, 52 µM (inactive); in the assay with SK-MEL-28, > 100 µM (inactive); in the assay on HCC 2998 it was 70.8 µM (inactive); with RPMI-8226 it was 43.3 µM (inactive). In the assay on HCT-15, the GI50 is 51.3 µM.

With `O=C(CC(Cl)=C(Cl)Cl)c1ccccc1`, the GI50 in the assay on CAKI-1 was 24.1 µM (inactive); in the assay with MCF7, > 100 µM (inactive); in the assay on BT-549, 66.1 µM (inactive); in the assay with ACHN, 43.5 µM (inactive); in the assay on LOX IMVI, 15 µM (inactive); with SF-295, > 100 µM (inactive). Besides, the GI50 in the assay on HT-29 is 31.6 µM (inactive); in the assay with MDA-MB-231 it was 34.8 µM (inactive); with SNB-19, > 100 µM (inactive); with Malme-3M, 31.8 µM (inactive); in the assay with NCI-H226, 28.9 µM (inactive); in the assay on SK-OV-3, > 100 µM (inactive). Also, the GI50 was 46 µM (inactive) in the assay on OVCAR-5; 37.5 µM (inactive) in the assay with UACC-62; 49.5 µM (inactive) in the assay with M14; 55.7 µM (inactive) in the assay on SK-MEL-28; 18 µM (inactive) with RPMI-8226; 24.8 µM in the assay with HCT-15.

Take `Cc1ccc(S(=O)(=O)NC(=O)N[C@@H](Cc2c[nH]cn2)C(=O)O)cc1`: the GI50 with MCF7, with BT-549, in the assay with ACHN, in the assay on LOX IMVI, with MDA-N and with SF-295 was > 100 µM (inactive) in each case. Further, the GI50 with HT-29, with MDA-MB-231, in the assay with SNB-19, in the assay with Malme-3M, in the assay with SK-OV-3 and in the assay with OVCAR-5 was > 100 µM (inactive) in each case. In addition, the GI50 in the assay with UACC-62 was > 100 µM (inactive); in the assay on M14 it was > 100 µM (inactive); in the assay on SK-MEL-28, > 100 µM (inactive); in the assay with RPMI-8226, 37.3 µM (inactive); in the assay on HCT-15, greater than 100 µM.

As for `NNC(=O)CC(=O)Nc1ccc(S(=O)(=O)c2ccc(NC(=O)CC(=O)NN)cc2)cc1`, the GI50 with CAKI-1, in the assay with BT-549, in the assay with ACHN, in the assay on SF-295, in the assay on HT-29 and in the assay with MDA-MB-231 was > 100 µM (inactive) in each case. Moreover, the GI50 in the assay with SNB-19, in the assay with NCI-H226, with SK-OV-3, with OVCAR-5, with UACC-62 and in the assay on M14 was > 100 µM (inactive) each time. Moreover, the GI50 with SK-MEL-28 is > 100 µM (inactive); in the assay with HCC 2998 it was > 100 µM (inactive); in the assay with RPMI-8226, > 100 µM (inactive); with HCT-15, greater than 100 µM.

Regarding `N=c1c2c(ncn1N)Oc1c(c(-c3ccccc3)nn1-c1ccccc1)C2c1ccc(Cl)cc1` (stereo not drawn), the GI50 in the assay on CAKI-1 was 2.1 µM (inactive); in the assay with MCF7, 1.44 µM (inactive); in the assay with ACHN, 2.04 µM (inactive); in the assay with LOX IMVI, 1.48 µM (inactive); in the assay on MDA-N, 1.82 µM (inactive); in the assay with SF-295, 1.66 µM (inactive). Further, the GI50 is 1.39 µM (inactive) in the assay on HT-29; 2.63 µM (inactive) in the assay with MDA-MB-231; 1.47 µM (inactive) with SNB-19; 1.61 µM (inactive) in the assay with Malme-3M; 1.98 µM (inactive) in the assay on NCI-H226; 1.85 µM (inactive) in the assay on SK-OV-3. Further, the GI50 was 1.5 µM (inactive) with OVCAR-5; 1.54 µM (inactive) in the assay with UACC-62; 1.56 µM (inactive) with M14; 1.76 µM (inactive) in the assay on SK-MEL-28; 0.762 µM (active) with HCC 2998; 2.35 µM (inactive) in the assay on RPMI-8226. For the same molecule, in the assay on HCT-15, the GI50 was 1.31 µM.

Consider `O=c1oc2ccc3ccccc3c2cc1-c1nnc(Nc2ccccc2)s1`, for which the GI50 in the assay with CAKI-1 was 34 µM (inactive); in the assay with MCF7 it was 34.8 µM (inactive); in the assay with BT-549 it was 33.5 µM (inactive); with ACHN, 13.2 µM (inactive); in the assay on SF-295 it was 65.3 µM (inactive); with HT-29, 41 µM (inactive). Besides, the GI50 was 18.2 µM (inactive) with MDA-MB-231; 38.4 µM (inactive) with SNB-19; > 100 µM (inactive) in the assay on OVCAR-5; 23.8 µM (inactive) with UACC-62; 37.2 µM (inactive) with M14; 44.8 µM (inactive) in the assay with HCC 2998. The GI50 with RPMI-8226 is 20.1 µM (inactive); in the assay on HCT-15, 51.6 µM.

Take `CC(OC(C)(C)C)C1NC(=O)C(CCCCNC(=O)OC(C)(C)C)NC(=O)C(Cc2c[nH]c3ccccc23)NC(=O)C(Cc2ccccc2)NC(=O)C2(CCCC2)NC(=O)C(Cc2ccccc2)NC1=O` (stereo not drawn) (cyclo([Ac5c]FWK(Boc)T(tBu)F); configuration not given here): the GI50 in the assay with CAKI-1 was 42.9 µM (inactive); in the assay on MCF7, 18.5 µM (inactive); in the assay with ACHN, 32.4 µM (inactive); in the assay with LOX IMVI it was 19.2 µM (inactive); with MDA-N, 43.2 µM (inactive); in the assay on SF-295, 29.9 µM (inactive). The GI50 is 24 µM (inactive) with HT-29; 17.5 µM (inactive) in the assay on MDA-MB-231; 34.2 µM (inactive) with SNB-19; 27.3 µM (inactive) in the assay with Malme-3M; 21.5 µM (inactive) with NCI-H226; 68.4 µM (inactive) with SK-OV-3. For the same molecule, the GI50 was 72.6 µM (inactive) with OVCAR-5; 21.6 µM (inactive) with UACC-62; 16.7 µM (inactive) with M14; 22.3 µM (inactive) with SK-MEL-28; 19 µM (inactive) in the assay with HCC 2998; 10.7 µM (inactive) in the assay with RPMI-8226. The same molecule gave a GI50 in the assay on HCT-15 greater than 100 µM.

As to `CC1=NN(c2nc(N)nc(CS(C)(=O)=O)n2)C(C)(C)C1`, the GI50 in the assay with CAKI-1, in the assay with MCF7, in the assay on BT-549, in the assay with ACHN, in the assay with LOX IMVI and in the assay on SF-295 was > 100 µM (inactive) throughout. Moreover, the GI50 with HT-29, in the assay with MDA-MB-231, with SNB-19, in the assay with SK-OV-3, with UACC-62 and in the assay with M14 was > 100 µM (inactive) each time. Also, the GI50 was > 100 µM (inactive) with SK-MEL-28, > 100 µM (inactive) with HCC 2998, > 100 µM (inactive) in the assay with RPMI-8226 and greater than 100 µM in the assay with HCT-15.

For the molecule `O=c1[nH]nc(Cc2ccc(Cl)cc2)n1/N=C/c1c[nH]c2ccccc12`, the GI50 in the assay on CAKI-1, with MCF7, in the assay with ACHN, with LOX IMVI, in the assay on MDA-N and in the assay with SF-295 was > 100 µM (inactive) throughout. Moreover, the GI50 in the assay with HT-29, in the assay with MDA-MB-231, with SNB-19, in the assay with Malme-3M, in the assay on NCI-H226 and with SK-OV-3 was > 100 µM (inactive) in each case. Besides, the GI50 is > 100 µM (inactive) in the assay with OVCAR-5; > 100 µM (inactive) with UACC-62; > 100 µM (inactive) in the assay with M14; > 100 µM (inactive) in the assay on SK-MEL-28; > 100 µM (inactive) in the assay on HCC 2998; 26.3 µM (inactive) in the assay with RPMI-8226. Further, in the assay with HCT-15, the GI50 is greater than 100 µM.

For the molecule `COC(=O)C1(C(=O)OC)N=C(C)OC1c1ccccn1` (stereo not drawn), the GI50 in the assay with CAKI-1, in the assay on MCF7, with BT-549, with ACHN, in the assay on LOX IMVI and in the assay on MDA-N was > 100 µM (inactive) in each case. The GI50 with SF-295, in the assay on SNB-19, in the assay on NCI-H226, with SK-OV-3, with OVCAR-5 and in the assay with UACC-62 was > 100 µM (inactive) throughout. The GI50 is > 100 µM (inactive) in the assay on M14; > 100 µM (inactive) in the assay with SK-MEL-28; > 100 µM (inactive) in the assay with HCC 2998; > 100 µM (inactive) with RPMI-8226; greater than 100 µM in the assay with HCT-15.

As to `CC(C)[Si](OC1=C(C(=O)N(C)c2ccccc2Cl)CCCC1)(C(C)C)C(C)C`, the GI50 with CAKI-1 was 14.3 µM (inactive); in the assay with MCF7, 13.2 µM (inactive); with ACHN it was 15.5 µM (inactive); in the assay with LOX IMVI it was 15.7 µM (inactive); in the assay with MDA-N, 16.4 µM (inactive); with SF-295 it was 7.52 µM (inactive). Besides, the GI50 in the assay with HT-29 is 15.8 µM (inactive); in the assay with MDA-MB-231 it was 16.3 µM (inactive); in the assay with SNB-19, 12.8 µM (inactive); in the assay on Malme-3M, 13 µM (inactive); with NCI-H226 it was 16 µM (inactive); in the assay on SK-OV-3, 14.7 µM (inactive). Moreover, the GI50 in the assay on OVCAR-5 was 12.8 µM (inactive); in the assay with UACC-62, 15.7 µM (inactive); in the assay on M14, 16.1 µM (inactive); with SK-MEL-28, 19 µM (inactive); with HCC 2998, 13.6 µM (inactive); in the assay on RPMI-8226 it was 10.3 µM (inactive). In addition, the GI50 with HCT-15 was 16.1 µM.
